Reference: publication PMC4633044, “Quorum Sensing Peptides Selectively Penetrate the Blood-Brain Barrier” (PLoS ONE, 2015)

Legend:
[1] = test system: mouse brain (blood-brain barrier); conditions: in vivo; for Kin / Kin (text): iv
[2] = test system: mouse brain (blood-brain barrier); conditions: in vivo
[3] = 0, 30, 120 min
[4] = test system: mouse brain capillaries / parenchyma; conditions: in vivo, iv
[5] = test system: blood-brain barrier
[6] = mouse, in vivo, iv
[7] = test system: mouse brain (blood-brain barrier); conditions: general value for the positive control; cited from earlier work
Excerpt: To evaluate these transport results, we compared them with the net clearances of oth ...

Row | Substance | Brain distribution volume, Vg [1] | Kin [1] | Kin (text) [1] | kout [2] | kout (text) [2] | half-life in human plasma [3] | Capillary fraction [4] | Capillary fraction, first animal (Fig 3) [4] | Capillary fraction, second animal (Fig 3) [4] | Parenchyma fraction, first animal (Fig 3) [4] | Parenchyma fraction, second animal (Fig 3) [4] | Parenchymal fraction [4] | BBB influx classification [5] | Tissue distribution (in words) [6] | clearance as % of the plasma flow to the brain [7]
1 | GLWEDLLYNINRYAHYIT [BIP-2, bacteriocin-inducing peptide 2] | 18.22 ± 1.43 µL/g | 2.68 ± 0.66 µL/g/min | 2.68 µL/g/min | -0.06 ± 0.02 min⁻¹ | -0.06 ± 0.02 | 5.345 h | 23.1% | 23.14% | 23.04% | 76.86% | 76.96% | 76.9% | low influx | strongly accumulated in the liver | –
2 | SYPGWSW [PhrCACET1] | 54.90 ± 5.75 µL/g | 20.87 ± 7.97 µL/g/min | 20.87 µL/g/min | -0.02 ± 0.04 min⁻¹ | -0.02 ± 0.03 | – | 15.1% | 13.97% | 16.20% | 86.03% | 83.80% | 84.9% | very high influx | – | –
3 | dermorphin [reference compound] | 23.05 ± 1.18 µL/g | 5.26 ± 0.93 µL/g/min | 5.26 μl/(gxmin) | -0.11 ± 0.02 min⁻¹ | – | – | 37.0% | – | – | – | – | 63.0% | low influx | mainly distributed in the duodenum, followed by the liver | about 0.05%
